In the OPERA property sets (Mansouri et al. 2018):
≈ marks a conversion by molar mass, not a printed value.

Conditions: 25 °C

In order of rising solubility:
1. Clc1ccc(-c2ccc(Cl)c(Cl)c2)cc1Cl  1.95e-06 mM (≈ 0.000569 µg/mL)
2. CCCCCCCCCCCCCCCCCCCCCCCCCCCCCCCCCCCC  3.35e-06 mM (≈ 0.0017 µg/mL)
3. c1ccc2cc3cc4ccccc4cc3cc2c1  6.61e-06 mM (≈ 0.00151 µg/mL)
4. Clc1ccc(Cl)c(-c2c(Cl)ccc(Cl)c2Cl)c1Cl  1.25e-05 mM (≈ 0.00451 µg/mL)
5. Clc1cc(-c2ccccc2)c(Cl)c(Cl)c1Cl  4.8e-05 mM (≈ 0.014 µg/mL)
6. Clc1cccc(-c2cccc(Cl)c2Cl)c1Cl  5.34e-05 mM (≈ 0.0156 µg/mL)
7. Cc1ccc2cc3ccccc3cc2c1  0.000111 mM (≈ 0.0213 µg/mL)
8. Clc1cccc(-c2cccc(Cl)c2)c1  0.00159 mM (≈ 0.355 µg/mL)
9. COc1ccc2c(c1)c(CC(=O)O)c(C)n2C(=O)/C=C/c1ccccc1  0.00286 mM (≈ 1 µg/mL)
10. CC(C)(C)CC(=O)OCC(=O)[C@@]1(O)CC[C@H]2[C@@H]3CCC4=CC(=O)CC[C@]4(C)[C@H]3[C@@H](O)C[C@@]21C  0.00308 mM (≈ 1.42 µg/mL)
11. Ic1ccc(I)cc1  0.00424 mM (≈ 1.4 µg/mL)
12. c1ccc2c(c1)Oc1ccccc1O2  0.00489 mM (≈ 0.901 µg/mL)
13. Clc1ccc(Cl)c(-c2ccccc2)c1  0.00502 mM (≈ 1.12 µg/mL)
14. C[C@]12CC[C@H]3C(=CCc4cc(O)ccc43)[C@@H]1CCC2=O  0.00525 mM (≈ 1.41 µg/mL)
15. CC(=O)[C@@]1(C)CC[C@H]2[C@@H]3C=C(C)C4=CC(=O)CC[C@]4(C)[C@H]3CC[C@@]21C  0.00534 mM (≈ 1.82 µg/mL)
16. CCCCCCc1ccccc1  0.00556 mM (≈ 0.902 µg/mL)
17. C[C@]12CCc3c(ccc4cc(O)ccc34)[C@@H]1CCC2=O  0.00571 mM (≈ 1.52 µg/mL)
18. CCCCC(C)CC (stereo unspecified)  0.00693 mM (≈ 0.792 µg/mL)
19. CC(C)CCC(C)(C)C  0.00897 mM (≈ 1.15 µg/mL)
20. CC(=O)O[C@]1(C(C)=O)CC[C@H]2[C@@H]3C=C(Cl)C4=CC(=O)C=C[C@]4(C)[C@H]3CC[C@@]21C  0.0113 mM (≈ 4.57 µg/mL)
21. Cc1ccc2cc(C)ccc2c1  0.0128 mM (≈ 2 µg/mL)
22. Cc1ccc(N=C=S)cc1  0.019 mM (≈ 2.83 µg/mL)
23. c1ccc(CCc2ccccc2)cc1  0.0236 mM (≈ 4.3 µg/mL)
24. Cc1ccc(-c2ccccc2)cc1  0.0241 mM (≈ 4.05 µg/mL)
25. COC1=CC(=O)C[C@@H](C)[C@]12Oc1c(Cl)c(OC)cc(OC)c1C2=O  0.0245 mM (≈ 8.64 µg/mL)
26. CC1CCC(C)(C)C1 (stereo unspecified)  0.0332 mM (≈ 3.73 µg/mL)
27. CCCC(C)(C)C  0.0439 mM (≈ 4.4 µg/mL)
28. CCc1ccc2ccccc2c1  0.0513 mM (≈ 8.01 µg/mL)
29. O=S(=O)(Cl)c1ccc(I)cc1  0.0539 mM (≈ 16.3 µg/mL)
30. CCC(C)(C)CC  0.0591 mM (≈ 5.92 µg/mL)
31. O=C(O)c1cccnc1Nc1cccc(C(F)(F)F)c1  0.0673 mM (≈ 19 µg/mL)
32. CN(C)CC/C=C1\c2ccccc2COc2ccccc21  0.113 mM (≈ 31.6 µg/mL)
33. C=CCCCCC  0.185 mM (≈ 18.2 µg/mL)
34. COc1cc(-c2ccc(N)c(OC)c2)ccc1N  0.246 mM (≈ 60 µg/mL)
35. NS(=O)(=O)c1cc2c(cc1C(F)(F)F)NC(Cc1ccccc1)NS2(=O)=O (stereo unspecified)  0.256 mM (≈ 108 µg/mL)
36. CN(C)C(=O)N[C@@H]1C[C@@H]2C[C@H]1[C@@H]1CCC[C@H]21  0.675 mM (≈ 150 µg/mL)
37. O=C(O)c1ccccc1C(=O)Nc1cccc2ccccc12  0.687 mM (≈ 200 µg/mL)
38. S=C=NCc1ccccc1  0.73 mM (≈ 109 µg/mL)
39. CCOC(=O)C=Cc1ccccc1  1.01 mM (≈ 178 µg/mL)
40. CCC1(C2=C[C@H]3CC[C@@H](C2)C3)C(=O)NC(=O)NC1=O  1.7 mM (≈ 446 µg/mL)
41. O=C(O)c1cccc(Br)c1  2 mM (≈ 402 µg/mL)
42. C(=C\c1ccccc1)/CN1CCN(C(c2ccccc2)c2ccccc2)CC1  2.04 mM (≈ 750 µg/mL)
43. C=CCCC  2.11 mM (≈ 148 µg/mL)
44. Fc1cccc(Br)c1  2.16 mM (≈ 378 µg/mL)
45. C1CCCC1  2.22 mM (≈ 156 µg/mL)
46. O=C(O)c1cccc(Cl)c1[N+](=O)[O-]  2.33 mM (≈ 470 µg/mL)
47. Fc1ccccc1Cl  3.84 mM (≈ 501 µg/mL)
48. CC(C)OC(C)(C)C  4.3 mM (≈ 500 µg/mL)
49. C=CCCBr  5.66 mM (≈ 764 µg/mL)
50. CCC(C)c1ccc(O)cc1 (stereo unspecified)  6.39 mM (≈ 960 µg/mL)
51. CCC(C)Cl (stereo unspecified)  10.8 mM (≈ 1000 µg/mL)
52. Cc1nc(N(C)C)nc(OC(=O)N(C)C)c1C  11.3 mM (≈ 2700 µg/mL)
53. Cc1cc(C)c2ccccc2n1  11.4 mM (≈ 1790 µg/mL)
54. ClCCCBr  14.2 mM (≈ 2240 µg/mL)
55. C#CCCCC#C  17.5 mM (≈ 1610 µg/mL)
56. C=CCC1(C(C)C)C(=O)NC(=O)NC1=O  19.4 mM (≈ 4080 µg/mL)
57. O=C(O)c1ccsc1  33.6 mM (≈ 4300 µg/mL)
58. CCC(O)C(C)(C)C (stereo unspecified)  70.6 mM (≈ 8200 µg/mL)
59. CCC(C)(C)CO  74.4 mM (≈ 7600 µg/mL)
60. O=C(O)c1cccc([N+](=O)[O-])c1C(=O)O  95.2 mM (≈ 20100 µg/mL)
61. CCCCC(C)O (stereo unspecified)  134 mM (≈ 13700 µg/mL)
62. CCC[C@@H](O)CC  158 mM (≈ 16100 µg/mL)
63. CCCCP(=O)(CCCC)CCCC  255 mM (≈ 55700 µg/mL)
64. O=C1CCCCC1  255 mM (≈ 25000 µg/mL)
65. NCC[C@H](O)C(=O)N[C@@H]1C[C@H](N)[C@@H](O[C@H]2O[C@H](CN)[C@@H](O)[C@H](O)[C@H]2O)[C@H](O)[C@H]1O[C@H]1O[C@H](CO)[C@@H](O)[C@H](N)[C@H]1O  316 mM (≈ 185000 µg/mL)
66. CNC(=O)ON=C(C)SC  358 mM (≈ 58000 µg/mL)
67. CC(C)[C@@H](N)C(=O)O (racemic)  563 mM (≈ 66000 µg/mL)
68. CCC(O)CC  584 mM (≈ 51500 µg/mL)
69. C=CC#N  1400 mM (≈ 74500 µg/mL)
70. C1CCCNCC1  1710 mM (≈ 170000 µg/mL)
71. C1OCOCO1  1940 mM (≈ 175000 µg/mL)

Same assay, conditions: 27 °C

With `CCCCOC=O` the solubility was 74 mM (≈ 7560 µg/mL).

Same assay, conditions: 30 °C

In order of falling solubility:
1. CN(C)CCN(Cc1cccs1)c1ccccn1  2.3 mM (≈ 601 µg/mL)
2. CCCCCCCCCCC(=O)O  0.28 mM (≈ 52.2 µg/mL)
3. COC(=O)[C@H]1[C@H]2C[C@@H]3c4[nH]c5cc(OC)ccc5c4CCN3C[C@H]2C[C@@H](OC(=O)c2cc(OC)c(OC)c(OC)c2)[C@@H]1OC  0.12 mM (≈ 73 µg/mL)
4. COc1ccc2ccc(=O)oc2c1CC=C(C)C  0.0491 mM (≈ 12 µg/mL)
